Patent US6596315B1, “Method of producing drug particles” (AstraZeneca AB, priority 1998, dated 2003)

assay: HPLC determination of degradation products in particles after SEDS processing; type: physicochemical
Description: High-Perfomance Liquid Chromatography (HPLC)
Identification and quantification of degradation products were determined using HPLC technique.
The amount of degradation products was calculated from the chromatograms as area-%. Thus, 0.2% area-procent means that the amount of degradation products was 0.2% of the initial weight of the substance.
Particles were prepared in a modified SEDS equipment (Bradford Particle Design Limited, UK) from a solution, containing substance(s).
The solution and the antisolvent were introduced into a coaxial nozzle, which was located inside a pressure vessel. Under controlled pressure and temperature conditions, the antisolvent extracts the solvent from the solution droplets. The concentration of the solute in the droplets is thereby increased, leading to rapid particle formation. The particles were collected in a vessel, while the antisolvent and the extracted solvent emerged through a back pressure regulator.
The nozzle used was a two component nozzle, with an opening of 0.2 mm in diameter. In the two component nozzle the supercritical fluid passes through the inner passage, while the solution passes through the outer passage.

Row | Degradation products | degradation products (HPLC) | SMILES
1 | 0.2 a % | 0.2 area % | COc1ccc2[n-]c([S+]([O-])Cc3ncc(C)c(OC)c3C)nc2c1.COc1ccc2[n-]c([S+]([O-])Cc3ncc(C)c(OC)c3C)nc2c1.[Mg+2] (stereo not shown) [Experiment 1-3b, Omeprazole magnesium]
2 | 0.2 a % | 0.2 area % | COc1ccc2[n-]c([S+]([O-])Cc3ncc(C)c(OC)c3C)nc2c1.COc1ccc2[n-]c([S+]([O-])Cc3ncc(C)c(OC)c3C)nc2c1.[Mg+2] (stereo not shown) [Experiment 1-2b, Omeprazole magnesium]
3 | 0.4 a % | 0.4 area % | COc1ccc2[n-]c([S+]([O-])Cc3ncc(C)c(OC)c3C)nc2c1.COc1ccc2[n-]c([S+]([O-])Cc3ncc(C)c(OC)c3C)nc2c1.[Mg+2] (stereo not shown) [Experiment 1-3a, Omeprazole magnesium]
4 | 0.1 a % | 0.1 area % | COc1ccc2[n-]c([S+]([O-])Cc3ncc(C)c(OC)c3C)nc2c1.COc1ccc2[n-]c([S+]([O-])Cc3ncc(C)c(OC)c3C)nc2c1.[Mg+2] (stereo not shown) [Experiment 1-4b, Omeprazole magnesium]
5 | 0.3 a % | 0.3 area % | COc1ccc2[n-]c([S@@+]([O-])Cc3ncc(C)c(OC)c3C)nc2c1.COc1ccc2[n-]c([S@@+]([O-])Cc3ncc(C)c(OC)c3C)nc2c1.[Mg+2] [Experiment 2-1b, (S)-omeprazole magnesium]
6 | 0.5 a % | 0.5 area % | COc1ccc2[n-]c([S+]([O-])Cc3ncc(C)c(OC)c3C)nc2c1.COc1ccc2[n-]c([S+]([O-])Cc3ncc(C)c(OC)c3C)nc2c1.[Mg+2] (stereo not shown) [Experiment 1-1a, Omeprazole magnesium]
7 | 0.2 a % | 0.2 area % | COc1ccc2[n-]c([S+]([O-])Cc3ncc(C)c(OC)c3C)nc2c1.COc1ccc2[n-]c([S+]([O-])Cc3ncc(C)c(OC)c3C)nc2c1.[Mg+2] (stereo not shown) [Experiment 1-1b, Omeprazole magnesium]
8 | 2.1 a % | 2.1 area % | COc1ccc2[n-]c([S@@+]([O-])Cc3ncc(C)c(OC)c3C)nc2c1.COc1ccc2[n-]c([S@@+]([O-])Cc3ncc(C)c(OC)c3C)nc2c1.[Mg+2] [Experiment 2-1a, (S)-omeprazole magnesium]
